# Assay results: paper PMC3314694, “Small Molecule Antagonists of the Wnt/Beta-Catenin Signaling Pathway Target Breast Tumor-Initiating Cells in a Her2/Neu Mouse Model of Breast Cancer” (PLoS ONE, 2012)
# B1: Dkk1: secreted protein inhibitor of Wnt/β-catenin signaling, from RnDSystems (protein, UniProt O94907 32-266, looked up)
# Dickkopf-related protein 1: TLNSVLNSNAIKNLPPPLGGAAGHPGSAVSAAPGILYPGGNKYQTIDNYQPYPCAEDEECGTDEYCASPTRGGDAGVQICLACRKRRKRCMRHAMCCPGNYCKNGICVSSDQNHFRGEIEETITESFGNDHSTLDGYSRRTTLSSKMYHTKGQEGSVCLRSSDCASGLCCARHFWSKICKPVLKEGQVCTKHRRKGSHGLEIFQRCYCGEGLSCRIQKDHHQASNSSRLHTCQRH
# B2: Wnt3A: stimulatory ligand of Wnt/β-catenin signaling, from RnDSystems (protein, UniProt P56704 19-352, looked up)
# Protein Wnt-3a: SYPIWWSLAVGPQYSSLGSQPILCASIPGLVPKQLRFCRNYVEIMPSVAEGIKIGIQECQHQFRGRRWNCTTVHDSLAIFGPVLDKATRESAFVHAIASAGVAFAVTRSCAEGTAAICGCSSRHQGSPGKGWKWGGCSEDIEFGGMVSREFADARENRPDARSAMNRHNNEAGRQAIASHMHLKCKCHGLSGSCEVKTCWWSQPDFRAIGDFLKDKYDSASEMVVEKHRESRGWVETLRPRYTYFKVPTERDLVYYEASPNFCEPNPETGSFGTRDRTCNVSSHGIDGCDLLCCGRGHNARAERRREKCRCVFHWCCYVSCQECTRVYDVHTCK
# How the values were obtained:
# [1] = test system: tumorsphere-derived cells; assay: Sphere forming assay, tumorsphere-derived cells; assay type: cell-based, mouse
# Excerpt: (§1) To determine whether Wnt/β-catenin signaling was required for BTIC and mammary epithelial stem and progenitor cell function in vitro, we examined the effect of agonists and antagonists of Wnt/β-catenin signaling on sphere formation, which when performed under appropriate conditions is thought to be an attribute of stem/progenitor cells and TICs, [38], [39], [40]. We seeded dispersed cells dissociated from mammospheres and tumorspheres into media containing either Dkk1 or Wnt3a at concentrations previously shown to be sufficient to inhibit or activate the Wnt/β-catenin signaling pathway, respectively, [42]. Dkk1 is a secreted protein inhibitor [43], and Wnt3A is a stimulatory ligand of Wnt/β-catenin signaling. […] We used the small molecule BIO to inhibit GSKβ, a negative regulator of Wnt/β-catenin signaling.
# (§2) We similarly tested pharmacological agents, which target Wnt/β-catenin signaling (PKF118–310, PKF115–584, CGP049090), for their affect on sphere formation. These inhibitors are specific antagonists of Wnt/β-catenin signaling that interrupt the […] step in pathway activation, namely the interaction between β-catenin and Tcf/Lef transcription factors. We seeded freshly isolated primary tumor cells and primary mammary epithelial cells, as well as mammosphere- and tumorsphere-derived cells into medium containing various concentrations of the inhibitors.
# (§3) The #3 and #4 mammary glands from virgin female FVB/N mice (6–8 weeks old) and mammary tumors were isolated as described previously, [56]. Mammospheres and tumorspheres were established from the bulk primary mammary epithelial and tumor cell population respectively as described previously. Serial passage of the mammospheres and tumorspheres was accomplished by mechanically dissociated the cells from spheres using titruation and reseeding the dispersed cells into fresh medium. Passage of the spheres was limited to 3–5 serial passages before the cells were harvested and RNA prepared. To induce a differentiation program in mammospheres in vitro, intact mammospheres were collected by centrifugation, the spheres were dissociated and the dispersed cells were plated at a density of 150,000 cells/ml on rat-tail collagen (Roche, Basel, Switzerland) coated 60 mm Petri dishes, [59]. The cells were incubated for a week before they were harvested and used to prepare cellular RNA for analyses.
# (§4) Sphere and colony forming assays were completed as previously described. Dkk1 and Wnt3A were obtained from RnDSystems (Minneapolis, Minnesota). PKF118–310, PKF115–584 and CGP049090 were a gift from Novartis (Basel, Switzerland).
# (§5) The 50% inhibitory concentration (IC50) of compounds was calculated using GraphPad Prism5 software. X-axis values were X = Log(X) transformed and then fit with a dose-response curve. The DMSO vehicle control was included to aid IC50 calculation and was assigned a 1 nM concentration of the tested compound.
# [2] = test system: primary mammary epithelial cells; assay: Secondary sphere-forming assay (self-renewal), primary mammary epithelial cells; assay type: cell-based, mouse; conditions: 1 µM during 4-day primary sphere assay; secondary spheres in medium lacking inhibitor
# Excerpt: (§6) To learn whether the inhibitory compounds affected the self-renewal of sphere-forming cells, we investigated the capacity of cells exposed to the compounds to serially form spheres. In short, dispersed primary mammary epithelial cells and primary tumor cells were exposed to PKF118–310 during a 4-day primary sphere-forming assay. The spheres that formed were counted, the cells dissociated from the spheres and the dispersed cells plated to form secondary spheres in fresh medium lacking the inhibitors.
# [3] = test system: mammosphere-derived cells; assay: Sphere forming assay, mammosphere-derived cells; assay type: cell-based, mouse
# Excerpt: as §1, §2, §3, §4, §5
# primary tumor cells [4] = assay: Sphere forming assay, primary tumor cells; assay type: cell-based, mouse; conditions: for IC50: primary tumor cells; for selectivity (IC50 MMS/IC50 TMS) for primary tumor cells over primary mammary epithelial cells: sphere forming assays
# Excerpt: as §2, §3, §4, §5
# [5] = test system: primary tumor cells (BTIC); assay: Ex vivo treatment of primary tumor cells and transplant into syngeneic mice; assay type: in vivo, mouse
# Procedure: We incubated freshly isolated primary tumor cells under sphere forming conditions in presence of vehicle (DMSO) or PKF118–310 (1 µM or 2.5 µM concentrations). After 4 days the spheres were collected, dissociated and equal numbers (5,000) of viable PKF118–310- and vehicle-treated cells were injected sub-cutaneously into the syngeneic mice. Upon endpoint, when the tumor in any individual mouse reached 10% of its weight (∼6 weeks) all the animals were sacrificed and the tumors harvested.
# as §4
# primary tumor cells [6] = assay: Secondary sphere-forming assay (self-renewal), primary tumor cells; assay type: cell-based, mouse; conditions: 1 µM during 4-day primary sphere assay; secondary spheres in medium lacking inhibitor
# Excerpt: as §6
# [7] = test system: primary mammary epithelial cells; assay: Sphere forming assay, primary mammary epithelial cells; assay type: cell-based, mouse
# Excerpt: as §2
# The #3 and #4 mammary glands from virgin female FVB/N mice (6–8 weeks old) and mammary tumors were isolated as described previously, [56]. Mammospheres and tumorspheres were established from the bulk primary mammary epithelial and tumor cell population respectively as described previously. Serial passage of the mammospheres and tumorspheres was accomplished by mechanically dissociated the cells from spheres using titruation and reseeding the dispersed cells into fresh medium. Passage of the spheres was limited to 3–5 serial passages before the cells were harvested and RNA prepared. […]
# BTICs in tumors = assay: Secondary transplant of tumor cells harvested from treated mice; assay type: in vivo; conditions: 10,000 cells/mouse from treated mice
# Excerpt: The principal objective of our experiments was to learn whether inhibition of Wnt/β-catenin signaling targeted BTICs in tumors. […] We reasoned that if PKF118–310 selectively targeted BTICs in vivo, viable cells isolated from PKF118–310 treated tumor-bearng hosts would engraft and elicit tumor growth less efficiently relative to their vehicle-treated counterparts. To this end, we transplanted tumor cells by injecting them sub-cutaneously (n = 20, PKF118–310-treated; n = 20, vehicle-treated) between the shoulders of syngeneic mice (10,000 cells/mouse) and measured tumor latency in the PKF118–310-treated and vehicle-treated transplant cohorts. […]
# Freshly isolated primary tumor (100,000) cells were suspended in 50% Matrigel (BD, Franklin Lakes, New Jersey), 45% phosphate buffered saline pH7.4 (PBS) and 5% fetal bovine serum (FBS) [Invitrogen, Carlsbad, California], and the cells were injected subcutaneously between the shoulders into syngeneic 6–8 week-old female mice (FVB/N strain). Mice were monitored by palpation weekly for the occurrence of tumors. […] Tumor volume was measured twice weekly. […] Viable tumor cells (assessed by TrypanBlue staining) from vehicle- and compound-treated mice were isolated as described above and 10,000 cells were transplanted subcutaneously into syngeneic mice (n = 20, treated; n = 20, untreated).
# [8] = test system: pre-established breast tumors; assay: In vivo compound administration to tumor-bearing mice; parameters: species or system mouse
# Excerpt: To determine whether PKF118–310 affected the growth of pre-established breast tumors and reduced BTIC frequency in vivo, we transplanted primary breast tumor cells into syngeneic mice and treated these hosts with PKF118–310 after the tumors had reached a volume of ∼1 cm^3. […] After treatment ceased the tumors in mice administered the vehicle were ∼3 fold larger than those in PKF118–310-treated mice (Fig. 4B, *p<0.05).
# To uncover potential mechanisms whereby the compound halted tumor growth, we prepared sections from the tumors of both cohorts and stained them with Hematoxylin and Eosin (H&E). […] In some cases the cell-free areas contained material, characteristic of milk protein secretions. […] We also examined whether inhibition of tumor growth was accomplished by a reduction in cell proliferation and/or induction of apoptosis. We stained tumor sections for markers of proliferation (Ki67) and apoptosis (cleaved caspase-3 and TUNEL). We observed a significant decrease in the frequency of Ki67 positive tumor cell nuclei in the PKF118–310 treated tumor-bearing mice compared to their vehicle-treated counterparts (Fig. 4D&E). […] Tumors from PKF118–310 treated mice comprised approximately 3–4-fold fewer Ki67-positive cells than tumors from vehicle-treated mice. We similarly simultaneously stained the tumor sections with antibodies to a luminal lineage marker (CK8) and with those to each of two myoepithelial lineage markers (CK14 and alpha-smooth muscle actin [alpha-SMA). The vast majority of the cells in sections prepared from tumors of the vehicle-treated mice expressed only the luminal lineage marker in keeping with previous findings (data not shown). Tumor sections prepared from tumors of the mice administered PKF118–310 also only expressed the luminal lineage marker.
# To learn whether administration of PKF118–310 to tumor-bearing mice inhibited Wnt/β-catenin signaling in tumors, we measured the abundance of Wnt/β-catenin target gene transcripts in the tumor cells.
# Freshly isolated primary tumor (100,000) cells were suspended in 50% Matrigel (BD, Franklin Lakes, New Jersey), 45% phosphate buffered saline pH7.4 (PBS) and 5% fetal bovine serum (FBS) [Invitrogen, Carlsbad, California], and the cells were injected subcutaneously between the shoulders into syngeneic 6–8 week-old female mice (FVB/N strain). Mice were monitored by palpation weekly for the occurrence of tumors. When tumors reached roughly 1 cm^3, the mice were administered either the vehicle (0.1% DMSO) or PKF118–310 (0.85 mg/kg) dissolved in 0.1% DMSO by intra-tumoral injection for 5 consecutive days followed by a 2-day rest period before compound administration was repeated once. Tumor volume was measured twice weekly. At the end of the 12-day treatment cycle the mice were sacrificed and their tumors harvested for analysis. […] Viable tumor cells (assessed by TrypanBlue staining) from vehicle- and compound-treated mice were isolated as described above and 10,000 cells were transplanted subcutaneously into syngeneic mice (n = 20, treated; n = 20, untreated).
# Paraformaldehyde fixed tumor fragments were embedded in paraffin, sectioned and stained with H&E. The tumor sections were de-paraffinized and rehydrated in ethanol (100-70% gradient) before immunofluorescent analysis. Antigen retrieval was performed in Antigen Unmasking Solution (Vector, Burlingame, California). Slides were blocked with 3% normal goat serum (Dako, Denmark) and incubated with primary antibodies for 2 hours at room temperature (Ki67, 1∶200 [ABCAM, Cambridge, Massachusetts]. Secondary antibodies (Invitrogen) were used at a 1∶200 dilution for 1 hour at room temperature.
# [9] = 0.85 mg/kg, qRT-PCR, versus vehicle
Molecule,IC50 [1] [nM],IC50 [3] [nM],IC50 (primary tumor cells [4]) [nM],selectivity (IC50 MMS/IC50 TMS) for primary tumor cells over primary mammary epithelial cells (primary tumor cells [4]),IC50 [7] [nM],effect on sphere formation [1],effect on sphere formation [3],further results
Cn1ncnc2c(=O)n(C)c(=O)nc1-2 [PKF118–310],940,540,580,2–3 fold,1540,–,–,"secondary mammosphere formation relative to vehicle [2]: at the same frequency as the vehicle-treated mammary epithelial cells; tumor latency versus vehicle-treated cells ([5]; cells incubated with 1 µM for 4 days): longer latency; tumor size at endpoint, smaller than vehicle-treated ([5]; cells incubated with 1 µM for 4 days, 5,000 viable cells s.c.): approximately 50%; tumor mass at endpoint ([5]; cells incubated with 1 µM for 4 days, 5,000 viable cells s.c., ∼6 weeks, control 0.49 g): 0.26 g; tumor initiation after transplant ([5]; cells incubated with 2.5 µM for 4 days, 5,000 viable cells s.c., ∼6 weeks): failed to initiate tumor growth in any of the host mice; reduction of capacity to form secondary spheres relative to vehicle (primary tumor cells [6]): ~10 fold; mice remaining tumor free (BTICs in tumors; 12 week follow-up): 85%; mice forming tumor grafts (BTICs in tumors; vehicle 20/20): 3 of 20; effect on tumor growth ([8]; 0.85 mg/kg intra-tumoral, 12 days (5 on, 2 off, 5 on)): inhibited tumor growth; tumor regression during treatment ([8]; 0.85 mg/kg, 12 days): did not induce significant tumor regression; abundance of axin2 transcripts in tumors [8, 9]: significantly lower; abundance of cyclin D1 transcripts in tumors [8, 9]: significantly lower; tumor volume after treatment, vehicle larger than treated ([8]; 0.85 mg/kg, t = 12 days): ~3 fold; Ki67-positive cells, fewer than in vehicle tumors ([8]; 0.85 mg/kg, tumor sections): 3–4 fold; cleaved caspase-3 or TUNEL staining (apoptosis) in tumors ([8]; 0.85 mg/kg, tumor sections): did not observe any positive staining"
O=C1Nc2cc(Br)ccc2/C1=C1/Nc2ccccc2/C1=N\O [BIO],–,–,–,–,–,stimulated sphere formation,stimulated sphere formation,–
PKF115–584,1340,1390,310,6–7 fold,2050,–,–,–
B1,–,–,–,–,–,reduced sphere formation,reduced sphere formation,–
B2,–,–,–,–,–,stimulated sphere formation,stimulated sphere formation,–
